Results published in ChEMBL document CHEMBL1671771, “Bismuth heterocycles based on a diphenyl sulfone scaffold: synthesis and substituent effect on the antifungal activity against Saccharomyces cerevisiae” (Eur J Med Chem, 2011).

The substances below were run on Saccharomyces cerevisiae (assay: Antifungal activity against Saccharomyces cerevisiae W303-1A at 30 mM after 48 hrs).
Format: functional, organism-based
For “10-Chloro-2-methoxyphenothiabismine 5,5-dioxide”, the inhibition zone (IZ) was 11 mm. “10-Chloro-3-methylphenothiabismine 5,5-dioxide” showed an inhibition zone (IZ) of 8 mm. “10-Chloro-2-trifluoromethylphenothiabismine 5,5-dioxide” gave an inhibition zone (IZ) of 11 mm. “10-chlorobenzo[b][1,4]benzothiabismine 5,5-dioxide” showed an inhibition zone (IZ) of 18 mm. “10-(4-Nitrobenzoyloxy)phenothiabismine 5,5-dioxide” gave an inhibition zone (IZ) of 17 mm. Substance “10-(4-Dimethylaminobenzoyloxy)phenothiabismine 5,5-dioxide” has an inhibition zone (IZ) of 13 mm. Substance “10-Chloro-2-tert-butylphenothiabismine 5,5-dioxide” has an inhibition zone (IZ) of 0 mm. “2,8-Dihydroxy-10-chlorophenothiabismine 5,5-dioxide” was tested, and the inhibition zone (IZ) was 8 mm. With “10-(Pyrrolidinedithiocarbamoyl)phenothiabismine 5,5-dioxide” the inhibition zone (IZ) was 0 mm. Work on “10-(N,N-Diethyldithiocarbamoyl)phenothiabismine 5,5-dioxide” yielded an inhibition zone (IZ) of 0 mm. “10-Chloro-2-phenylphenothiabismine 5,5-dioxide” gave an inhibition zone (IZ) of 0 mm. Work on “tert-butyl-[2-[tert-butyl(dimethyl)silyl]oxy-10-chloro-5,5-dioxo-benzo[b][1,4]benzothiabismin-8-yl]oxy-dimethyl-silane” yielded an inhibition zone (IZ) of 0 mm. Substance “10-Chloro-2-fluorophenothiabismine 5,5-dioxide” has an inhibition zone (IZ) of 17 mm. With “10-Chloro-2-dimethylaminophenothiabismine 5,5-dioxide” the inhibition zone (IZ) was 7 mm. “2,10-Dichlorophenothiabismine 5,5-dioxide” showed an inhibition zone (IZ) of 13 mm. “1,10-Dichlorophenothiabismine 5,5-dioxide” gave an inhibition zone (IZ) of 13 mm. Work on “10-Chloro-2-methylphenothiabismine 5,5-dioxide” yielded an inhibition zone (IZ) of 14 mm. In the case of “4,10-Dichlorophenothiabismine 5,5-dioxide”, the inhibition zone (IZ) is reported as 10 mm.
